Data as given in PubChem BioAssay (NCI).
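All cell lines were grown in 96-well plates and treated with compound for 48 hours. TGI denotes the concentration required for complete inhibition of growth.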

Columns and labels:
Test in all cases: inhibition of tumour cell growth, NCI panel, 48 h
CAKI-1 renal = system: CAKI-1 renal
OVCAR-8 ovarian = system: OVCAR-8 ovarian
OVCAR-3 ovarian = system: OVCAR-3 ovarian
SF-268 CNS = system: SF-268 CNS
HCT-116 colon = system: HCT-116 colon
786-0 renal = system: 786-0 renal
SF-539 CNS = system: SF-539 CNS
KM20L2 colon = system: KM20L2 colon
DMS 114 small cell lung = system: DMS 114 small cell lung
A498 renal = system: A498 renal
KM12 colon = system: KM12 colon
SN12C renal = system: SN12C renal
K-562 leukemia = system: K-562 leukemia
ACHN renal = system: ACHN renal
NCI-H226 lung = system: NCI-H226 lung
M19-MEL melanoma = system: M19-MEL melanoma
UO-31 renal = system: UO-31 renal
SNB-78 CNS = system: SNB-78 CNS
SR leukemia = system: SR leukemia
XF 498 CNS = system: XF 498 CNS
HCC-2998 colon = system: HCC-2998 colon
HT29 colon = system: HT29 colon
SNB-75 CNS = system: SNB-75 CNS
U251 CNS = system: U251 CNS
NCI-H23 lung = system: NCI-H23 lung
M14 melanoma = system: M14 melanoma
COLO 205 colon = system: COLO 205 colon
HCT-15 colon = system: HCT-15 colon
LXFL 529 NSCLC = system: LXFL 529 NSCLC
SNB-19 CNS = system: SNB-19 CNS
SF-295 CNS = system: SF-295 CNS
HL-60(TB) leukemia = system: HL-60(TB) leukemia
SW-620 colon = system: SW-620 colon
OVCAR-5 ovarian = system: OVCAR-5 ovarian
MOLT-4 leukemia = system: MOLT-4 leukemia
IGROV1 ovarian = system: IGROV1 ovarian
OVCAR-4 ovarian = system: OVCAR-4 ovarian
HOP-18 NSCLC = system: HOP-18 NSCLC
RPMI-8226 leukemia = system: RPMI-8226 leukemia
UACC-257 melanoma = system: UACC-257 melanoma
HOP-62 NSCLC = system: HOP-62 NSCLC
SK-MEL-28 melanoma = system: SK-MEL-28 melanoma
A549 NSCLC = system: A549 NSCLC
LOX IMVI melanoma = system: LOX IMVI melanoma
CCRF-CEM leukemia = system: CCRF-CEM leukemia
RXF 393 renal = system: RXF 393 renal
HOP-92 NSCLC = system: HOP-92 NSCLC
TK-10 renal = system: TK-10 renal
UACC-62 melanoma = system: UACC-62 melanoma
NCI-H460 lung = system: NCI-H460 lung
EKVX NSCLC = system: EKVX NSCLC
NCI-H522 lung = system: NCI-H522 lung
MALME-3M melanoma = system: MALME-3M melanoma
SK-OV-3 ovarian = system: SK-OV-3 ovarian
DMS 273 small cell lung = system: DMS 273 small cell lung
DLD-1 colon = system: DLD-1 colon
SK-MEL-5 melanoma = system: SK-MEL-5 melanoma
SK-MEL-2 melanoma = system: SK-MEL-2 melanoma

`CC[C@@H]1C[C@@H]2CN3CCc4c([nH]c5ccc(OC)cc45)C(COC(=O)c4ccc(OC)c(OC)c4)(C2)C13` was tested, and the TGI (CAKI-1 renal) was > 100 µM, the TGI (OVCAR-8 ovarian) was > 100 µM and the TGI (OVCAR-3 ovarian) was > 100 µM. The TGI (SF-268 CNS) was > 100 µM, the TGI (HCT-116 colon) was 44 µM and the TGI (786-0 renal) was > 100 µM. For the same compound, the TGI (SF-539 CNS) was 55 µM, the TGI (KM20L2 colon) was 74.3 µM and the TGI (DMS 114 small cell lung) was 71.8 µM. For the same compound, the TGI (A498 renal) was 61.4 µM, the TGI (KM12 colon) was > 100 µM and the TGI (SN12C renal) was 39.3 µM. The TGI (K-562 leukemia) was 43 µM, the TGI (ACHN renal) was > 100 µM and the TGI (NCI-H226 lung) was 33.8 µM. For the same compound, the TGI (M19-MEL melanoma) was > 100 µM, the TGI (UO-31 renal) was 98.8 µM and the TGI (SNB-78 CNS) was > 100 µM. The TGI (SR leukemia) was 78.4 µM, the TGI (XF 498 CNS) was 46.1 µM and the TGI (HCC-2998 colon) was 55.4 µM. For the same compound, the TGI (HT29 colon) was 39.2 µM, the TGI (SNB-75 CNS) was > 100 µM and the TGI (U251 CNS) was 43.6 µM. For the same compound, the TGI (NCI-H23 lung) was 38.8 µM, the TGI (M14 melanoma) was 41.8 µM and the TGI (COLO 205 colon) was > 100 µM. For the same compound, the TGI (HCT-15 colon) was > 100 µM, the TGI (LXFL 529 NSCLC) was 35.1 µM and the TGI (SNB-19 CNS) was > 100 µM. For the same compound, the TGI (SF-295 CNS) was 70.6 µM, the TGI (HL-60(TB) leukemia) was 39.2 µM and the TGI (SW-620 colon) was 40.1 µM. The TGI (OVCAR-5 ovarian) was > 100 µM, the TGI (MOLT-4 leukemia) was 62.3 µM and the TGI (IGROV1 ovarian) was 74.5 µM. The TGI (OVCAR-4 ovarian) was > 100 µM, the TGI (HOP-18 NSCLC) was > 100 µM and the TGI (RPMI-8226 leukemia) was 86.4 µM. The TGI (UACC-257 melanoma) was 37.8 µM, the TGI (HOP-62 NSCLC) was 93 µM and the TGI (SK-MEL-28 melanoma) was > 100 µM. For the same compound, the TGI (A549 NSCLC) was > 100 µM, the TGI (LOX IMVI melanoma) was 27.6 µM and the TGI (CCRF-CEM leukemia) was 95.7 µM. For the same compound, the TGI (RXF 393 renal) was 62.6 µM, the TGI (HOP-92 NSCLC) was 32.2 µM and the TGI (TK-10 renal) was 97.2 µM. For the same compound, the TGI (UACC-62 melanoma) was 28 µM, the TGI (NCI-H460 lung) was 84.1 µM and the TGI (EKVX NSCLC) was > 100 µM.
`COc1ccc2[nH]cc(CCNC(C)=O)c2c1` was tested, and the TGI (CAKI-1 renal) was > 100 µM, the TGI (OVCAR-8 ovarian) was > 100 µM and the TGI (NCI-H522 lung) was > 100 µM. For the same compound, the TGI (OVCAR-3 ovarian) was > 100 µM, the TGI (SF-268 CNS) was > 100 µM and the TGI (HCT-116 colon) was > 100 µM. For the same compound, the TGI (MALME-3M melanoma) was > 100 µM, the TGI (786-0 renal) was > 100 µM and the TGI (SF-539 CNS) was > 100 µM. The TGI (KM20L2 colon) was > 100 µM, the TGI (DMS 114 small cell lung) was > 100 µM and the TGI (A498 renal) was > 100 µM. The TGI (SK-OV-3 ovarian) was > 100 µM, the TGI (KM12 colon) was > 100 µM and the TGI (DMS 273 small cell lung) was > 100 µM. For the same compound, the TGI (SN12C renal) was > 100 µM, the TGI (K-562 leukemia) was > 100 µM and the TGI (ACHN renal) was > 100 µM. For the same compound, the TGI (M19-MEL melanoma) was > 100 µM, the TGI (UO-31 renal) was > 100 µM and the TGI (SNB-78 CNS) was > 100 µM. For the same compound, the TGI (XF 498 CNS) was > 100 µM, the TGI (HT29 colon) was > 100 µM and the TGI (SNB-75 CNS) was > 100 µM. The TGI (U251 CNS) was > 100 µM, the TGI (DLD-1 colon) was > 100 µM and the TGI (NCI-H23 lung) was > 100 µM. For the same compound, the TGI (M14 melanoma) was > 100 µM, the TGI (COLO 205 colon) was 85.5 µM and the TGI (HCT-15 colon) was > 100 µM. The TGI (LXFL 529 NSCLC) was > 100 µM, the TGI (SNB-19 CNS) was > 100 µM and the TGI (SK-MEL-5 melanoma) was > 100 µM. For the same compound, the TGI (SF-295 CNS) was > 100 µM, the TGI (HL-60(TB) leukemia) was > 100 µM and the TGI (SW-620 colon) was 24.1 µM. For the same compound, the TGI (OVCAR-5 ovarian) was > 100 µM, the TGI (MOLT-4 leukemia) was > 100 µM and the TGI (IGROV1 ovarian) was > 100 µM. The TGI (OVCAR-4 ovarian) was > 100 µM, the TGI (HOP-18 NSCLC) was > 100 µM and the TGI (SK-MEL-2 melanoma) was > 100 µM. The TGI (RPMI-8226 leukemia) was 57.1 µM, the TGI (UACC-257 melanoma) was > 100 µM and the TGI (HOP-62 NSCLC) was > 100 µM. For the same compound, the TGI (SK-MEL-28 melanoma) was > 100 µM, the TGI (A549 NSCLC) was > 100 µM and the TGI (LOX IMVI melanoma) was > 100 µM. The TGI (CCRF-CEM leukemia) was > 100 µM, the TGI (RXF 393 renal) was > 100 µM and the TGI (HOP-92 NSCLC) was > 100 µM. The TGI (TK-10 renal) was > 100 µM, the TGI (UACC-62 melanoma) was > 100 µM and the TGI (NCI-H460 lung) was > 100 µM. The TGI (EKVX NSCLC) was > 100 µM.
With `O=C1C=CC(=O)c2c1ccc1c3ccccc3n(-c3ccccn3)c21` the TGI (OVCAR-8 ovarian) was > 100 µM, the TGI (NCI-H522 lung) was 8.67 µM and the TGI (OVCAR-3 ovarian) was 63.8 µM. For the same compound, the TGI (SF-268 CNS) was > 100 µM, the TGI (HCT-116 colon) was 25.9 µM and the TGI (MALME-3M melanoma) was 32.7 µM. It also gave a TGI (786-0 renal) of 28.5 µM, a TGI (SF-539 CNS) of 68.2 µM and a TGI (DMS 114 small cell lung) of 40.2 µM. The TGI (SK-OV-3 ovarian) was > 100 µM, the TGI (KM12 colon) was > 100 µM and the TGI (DMS 273 small cell lung) was > 100 µM. For the same compound, the TGI (SN12C renal) was > 100 µM, the TGI (K-562 leukemia) was 51.1 µM and the TGI (ACHN renal) was 35.6 µM. For the same compound, the TGI (NCI-H226 lung) was 82.7 µM, the TGI (M19-MEL melanoma) was 41.6 µM and the TGI (UO-31 renal) was 35.8 µM. The TGI (SNB-78 CNS) was > 100 µM, the TGI (XF 498 CNS) was 29.3 µM and the TGI (HCC-2998 colon) was > 100 µM. For the same compound, the TGI (HT29 colon) was 77.1 µM, the TGI (SNB-75 CNS) was > 100 µM and the TGI (U251 CNS) was > 100 µM. For the same compound, the TGI (DLD-1 colon) was 30.6 µM, the TGI (NCI-H23 lung) was > 100 µM and the TGI (M14 melanoma) was 87.9 µM. For the same compound, the TGI (COLO 205 colon) was 30.2 µM, the TGI (HCT-15 colon) was 35.3 µM and the TGI (LXFL 529 NSCLC) was 28.5 µM. The TGI (SF-295 CNS) was > 100 µM, the TGI (HL-60(TB) leukemia) was 31.4 µM and the TGI (OVCAR-5 ovarian) was > 100 µM. The TGI (MOLT-4 leukemia) was 84.5 µM, the TGI (OVCAR-4 ovarian) was 29.8 µM and the TGI (HOP-18 NSCLC) was 29.1 µM. The TGI (SK-MEL-2 melanoma) was > 100 µM, the TGI (RPMI-8226 leukemia) was > 100 µM and the TGI (UACC-257 melanoma) was 37.3 µM. The TGI (SK-MEL-28 melanoma) was > 100 µM, the TGI (A549 NSCLC) was > 100 µM and the TGI (CCRF-CEM leukemia) was > 100 µM. The TGI (HOP-92 NSCLC) was 29.9 µM, the TGI (TK-10 renal) was 30.5 µM and the TGI (NCI-H460 lung) was > 100 µM. It also gave a TGI (EKVX NSCLC) of 43.4 µM.
